Assay [1] relates to TNF-α. Description: TNF-α release from U937 cells (LPS-induced, DELFIA). It is filed as cell-based. Conditions: Homo sapiens, U-937; for IC50: PMA-pretreated U937 cells, 1 ng/ml LPS, 18 hours, read-out: IC50 LPS-induced TNF production in U937 cells. The protocol:
The effect of the compounds of the invention on TNF-α release was investigated using a known method (Lozanski, G. et al., (1992), J. Rheumatol; 19, 921-26).
The human histolytic lymphoma U937 cell line was obtained from a commercial source (ECACC, Salisbury, UK) and maintained in RPMI 1640 medium supplemented with 2 mM L-glutamine and 5% fetal bovine serum. The cells were pretreated with 25 ng/ml PMA for six hours and then exposed to dose ranges of the compound to be tested followed by the addition of 1 ng/ml LPS.
After 18 hours incubation at 37° C. with 5% CO2 the cell culture supernatants were harvested and stored at −70° C., until required for determination of TNF-α secretion by Dissociation Enhanced Lanthanide Fluorescence Immuno Assay (DELFIA). The effect of the compounds on cell cytotoxicity was measured using the tetrazolium salt, XTT (2,3-bis[2-methoxy-4-nitro-5-sulphophenyl]-2H-tetrazolium-5-carboxanilide salt) and effects on protein synthesis were determined by investigation of [^3H] Leucine uptake.

Assay [2] has as its system IL-1β. Description: IL-1β release from human monocytes (LPS-induced, ELISA). Conditions: Monocyte; for IC50: human monocytes, 1 ng/ml LPS, 18 hours, read-out: IC50 LPS-induced IL-β production (monocytes). Format: cell-based. The text has this: The effect of the compounds of the invention on IL-Iβ release was investigated using a known method (Bakouche, O. et al., (1992), J. Immunol: 148, 84-91). Human monocytes were purified by elutriation from Buffy coats obtained from normal healthy donors after the separation of peripheral blood mononuclear cells (PBMC) on Lymphoprep. The freshly isolated monocytes were suspended in RPMI 1640 supplemented with 5% FBS and exposed to dose ranges of the compound to be tested followed by the addition of 1 ng/ml LPS. Cells were incubated for 18 hours at 37° C. with 5% CO2 and the cell culture supernatants harvested and stored at −70° C. Effects on the production of IL-1β were determined using an ELISA.

Each structure is given as a SMILES string.

Consider `C/C=C/[C@@H]1OC(=O)C=C[C@@H]1C(=O)/C=C/C(C)=C/[C@@H](C)CCCCCC` [R in formula (I) is CH3, 3-((5S,6S)-5,6-dihydro-5-((6S)-4,6-dimethyldodeca-2E,4E-dienoyl)-2H-pyran-2-on-6-yl)-prop-2E-ene], for which the IC50 in assay [1] came out at 80 nM; in assay [2] it was 190 nM. Besides, the inhibition at 0.01 µM in assay [1] (concentration 0.01 μM) is 0.85%. Besides, in assay [1] (concentration 0.04 μM), the inhibition at 0.04 µM was 20%. Also, the inhibition at 0.17 µM in assay [1] (concentration 0.17 μM) was 61%. In addition, the inhibition at 0.7 µM in assay [1] (concentration 0.7 μM) was 90%. Also, in assay [1] (concentration 2.8 μM), the inhibition at 2.8 µM was found to be 99%. The inhibition at 0.044 µM in assay [2] (Homo sapiens, concentration 0.044 μM) was found to be 23%. Further, the inhibition at 0.22 µM in assay [2] (Homo sapiens, concentration 0.22 μM) is 41%. Also, the inhibition at 1.1 µM in assay [2] (Homo sapiens, concentration 1.1 μM) turned out to be 72%. Also, in assay [2] (Homo sapiens, concentration 5.5 μM), the inhibition at 5.5 µM came to 88%.

`CCCCCC[C@H](C)/C=C(C)/C=C/C(=O)[C@H]1C=CC(=O)O[C@H]1/C=C/C(=O)O` [R in formula (I) is CO2H, 3-((5S,6S)-5,6-dihydro-5-((6S)-4,6-dimethyldodeca-2E,4E-dienoyl)-2H-pyran-2-on-6-yl)-prop-2E-enoic acid]: the IC50 in assay [1] and in assay [2] was 2000 nM throughout. In addition, the inhibition at 0.12 µM in assay [1] (concentration 0.12 μM) is 47%. Moreover, the inhibition at 0.5 µM in assay [1] (concentration 0.5 μM) came out at 77%; in assay [2] (Homo sapiens, concentration 0.5 μM), 14%. Also, the inhibition at 2 µM in assay [1] (concentration 2 μM) was 100%; in assay [2] (Homo sapiens, concentration 2 μM), 81.5%. Moreover, the inhibition at 8 µM in assay [1] (concentration 8 μM) worked out at 107%. The inhibition at 20 µM in assay [2] (Homo sapiens, concentration 20 μM) is 99%.
